Results on two molecules are retold here after patent US9850300B2, “Compositions and methods relating to inhibiting cancer cell growth and/or proliferation” (The Regents of the University of Michigan, priority 2013, dated 2017).

Entries after “also recorded” stand apart in the source; their conditions may differ.

What all share (type): cell-based
The test system of assay [1] is ALDH+ CSCs in SKOV3 cells. In words: ALDH+ cell percentage and number (ALDEFLUOR FACS). The note with it: Echistatin 100 nM pretreatment 24 hours or EGFL6 antibody 5 μg/ml, then EGFL6. From the text:
It has been shown that aldehyde dehydrogenase enzymatic activity (ALDH) is an excellent marker of ovarian CSCs in SKOV3 cells and primary patient samples (see, e.g., Silva, I. A., et al. Cancer Res (2011); Landen, C. N., Jr., et al. Mol Cancer Ther 9, 3186-3199 (2010); Steg, A. D., et al. Clin Cancer Res 18, 869-881 (2012); Kryczek, I., et al. Int J Cancer 130, 29-39 (2012); Deng, S., et al. PLoS ONE 5, e10277 (2010)). The impact of EGFL6 treatment on the percentage of ALDH^+ CSCs in vitro was next assessed. […] However, given the increase in total cell numbers, the absolute ALDH^+ CSC number remained unchanged (FIG. 3Aiii). […] Human ovarian cancer ascites cells were also treated with EGFL6 in a tumor sphere assay. Once again, treatment with EGLF6 was associated with a reduction in ALDH^+ cell percentages in tumor spheres (FIG. 3B).
(§1) SKOV3, A2008, and A2780 were maintained in RPMI-1640, supplemented with 10% FBS with 1% Penicillin/Streptomycin, and cultured in humidified atmosphere of 5% CO2 at 37° C. For all in vitro cell culture experiments, isolated cells were allow to recover overnight following FACS, prior to treatment. Infantile Hemangioma Stem cells were maintained in EBM-2 medium with growth factor supplement cocktails in culture plates coated with fibronectin. For Echistatin and EGFL6 treatment, cells were pretreated with Echistatin (Sigma, 100 nM) for 24 hours prior to EGFL6 treatment. All transfections were performed using FuGene6 reagent (Promega) per company protocol.
FACS assay was performed as previously described (see, e.g., Silva, I. A., et al. Cancer Res (2011)). Briefly, SKOV3 cells or primary ovarian tumor/ascetics cells were stained for ALDH using ALDEFLUOR kit per company protocol (Stem Cell Technologies). DAPI staining was used to exclude non-viable cells. For FACS cell sorting, equal number of ALDH and ALDH^(−) cells were collected for subsequent experiments.
EGFL6 monoclonal antibody producing hybridoma cells were maintained in RPMI medium supplemented with 10% FBS. For antibody purification, the cells were cultured in reduced FBS (5%). […]

The test system of another assay is SKOV3 cells. In words: EGFL6-mediated cell proliferation, RGE mutation or Echistatin pretreatment. The note with it: for proliferative effect on cancer cells: RGD-to-RGE mutated EGFL6 vs EGFL6, SKOV3. How it is done: To determine if EGFL6 signaling on cancer cells is via integrin bind, an EGFL6 protein with an […] mutation (EGFL6^RGE) was generated. […] Similarly, pretreatment of SKOV3 cells with the integrin β1/β3 inhibitor Echistatin blocked both EGFL6-mediated cancer cell proliferation and the decrease in ALDH^+ percentage (FIG. 4B).
as §1

The subject of assay [2] is phosphorylation of SHP2, ERK, FAK and SRC in SKOV3 cells. As to the kind of experiment: Western blot of EGFL6 mediated signal activation. The note with it: for p-SHP2 levels: treatment of ALDH+ SKOV3 cells. How it is done: Lastly, EGFL6 mediated signal activation was evaluated. Integrin signaling has been reported to induce the […] of FAK, SRC and SHP2 among others. […] Phosphorylation of all of these proteins could be blocked with Echistatin.
Cellular signaling changes associated with EGFL6 was next examined. […] EGFL6 treatment was associated with increased p-SHP2 levels specifically in ALDH^+ cells (FIG. 4Ei). […] SHP2 phosphorylation could be blocked with Echistatin (FIG. 4Eiii) or an EGFL6-blocking antibody. SHP2 phosphorylation was associated with increased p-ERK levels (4Ei-iii).
as §1
EGFL6 monoclonal antibody producing hybridoma cells were maintained in RPMI medium supplemented with 10% FBS. For antibody purification, the cells were cultured in reduced FBS (5%). Culture supernatant was collected and cell debris was removed by centrifugation. EGFL6 antibody was pulled down using Protein G Agarose heeds, Fast Flow (Millipore), washed and eluded with 50 mM glycine PH.2.7. Antibody solution was immediately neutralized to PH 7.2-7.4 with Tris (Ph 9.0, final concentration 25 mM). NaCl was added to final concentration of 150 mM. EGFL6 antibody was applied at 5 μg/ml for in vitro cell treatment and 50 μg/mouse for in vivo treatment.

Regarding Echistatin [reference compound], the “blockade of EGFL6-mediated reduction in ALDH+ cell percentages” value in assay [1] is given as “inhibited the effect of EGFL6; also recorded: blocked; also recorded: inhibits”. Further, the “blockade of EGFL6-mediated cancer cell proliferation” value with SKOV3 cells (Echistatin pretreatment, SKOV3) is “blocked”. The “blockade of EGFL6-induced phosphorylation of SHP2, FAK and SRC” value in assay [2] (Echistatin pretreatment) is “blocked”. Moreover, in assay [2] (with EGFL6 treatment), the “blockade of EGFL6-mediated ERK phosphorylation” value was “suppressed” and the “blockade of EGFL6-mediated SHP2 phosphorylation” value was “blocked; also recorded: suppressed”.

B1: EGFL6^RGE: EGFL6 protein with an RGD-to-RGE mutation of the integrin binding motif (protein)
chain: NAASARHHGLLASARQPGVCHYGTKLACCYGWRRNSKGVCEATCEPGCKFGECVGPNKCRCFPGYTGKTCSQDVNECGMKPRPCQHRCVNTHGSYKCFCLSGHMLMPDATCVNSRTCAMINCQYSCEDTEEGPQCLCPSSGLRLAPNGRDCLDIDECASGKVICPYNRRCVNTFGSYYCKCHIGFELQYISGRYDCIDINECTMDSHTCSHHANCFNTQGSFKCKCKQGYKGNGLRCSAIPENSVKEVLRAPGTIKDRIKKLLAHKNSMKKKAKIKNVTPEPTRTPTPKVNLQPFNYEEIVSRGGNSHGGKKGNEEKMKEGLEDEKREEKALKNDIEERSLRGEVFFPKVNEAGEFGLILVQRKALTSKLEHKDLNISVDCSFNHGICDWKQDREDDFDWNPADRDNAIGFYMAVPALAGHKKDIGRLKLLLPDLQPQSNFCLLFDYRLAGDKVGKLRVFVKNSNNALAWEKTTSEDEKWKTGKIQLYQGTDATKSIIFEAERGKGKTGEIAVDGVLLVSGLCPDSLLSVDD
Consider B1, for which the “proliferative effect on cancer cells” value in the assay with SKOV3 cells was “eliminated the proliferative effects”; with SKOV3 cells (listed as EGFL6-RGE mutant) it was “suppressed”. Also, the figures for the p-SHP2 levels entry in assay [2] and in assay [2] (listed as EGFL6-RGE mutant) were “did not increase” and “does not increase”, respectively. The p-ERK levels result in assay [2] (treatment of ALDH+ and ALDH(−) cells) was “does not increase”.
